Measured values published in patent US20180049457A1, “ENZYMATIC SYNTHESIS OF SOLUBLE GLUCAN FIBER” (E I DU PONT DE NEMOURS AND COMPANY, priority 2014, published 2018).

Key:
human faecal microbiota = assay: Colonic fermentation modeling (semi-continuous colon simulator) and measurement of fatty acids; type: cell-based; details: test component 1% in ileal fluid, 48 h
Description: Colonic fermentation was modeled using a semi-continuous colon simulator as described by Makivuokko et al. (Nutri. Cancer (2005) 52(1):94-104); in short; a colon simulator consists of four glass vessels which contain a simulated ileal fluid as described by Macfarlane et al. (Microb. Ecol. (1998) 35(2):180-187). The simulator is inoculated with a fresh human faecal microbiota and fed every third hour with new ileal liquid and part of the contents is transferred from one vessel to the next. The ileal fluid contains one of the described test components at a concentration of 1%. The simulation lasts for 48 h after which the content of the four vessels is harvested for further analysis. The further analysis involves the determination of microbial metabolites such as short chain fatty acids (SCFA); also referred to as volatile fatty acids (VFA) and branched chain fatty acids (BCFA). Analysis was performed as described by Holben et al. (Microb. Ecol. (2002) 44:175-185); in short; simulator content was centrifuged and the supernatant was used for SCFA and BCFA analysis. Pivalic acid (internal standard) and water were mixed with the supernatant and centrifuged. After centrifugation, oxalic acid solution was added to the supernatant and then the mixture was incubated at 4° C., and then centrifuged again. The resulting supernatant was analyzed by gas chromatography using a flame ionization detector and helium as the carrier gas. Comparative data generated from samples of LITESSE® ULTRA™ (polydextrose, Danisco), ORAFTI® P95 (oligofructose; fructo-oligosaccharide, “FOS”, Beneo), lactitol (Lactitol MC (4-O-β-D-galactopyranosyl-D-glucitol monohydrate, Danisco), and a negative control is also provided. The concentration of acetic, propionic, butyric, isobutyric, valeric, isovaleric, 2-methylbutyric, and lactic acid was determined (Table 64).

intestinal microbiota = assay: In vitro gas production by intestinal microbiota (pre-conditioned faecal slurry); type: cell-based
Method: To measure the formation of gas by the intestinal microbiota, a pre-conditioned faecal slurry was incubated with test prebiotic (oligosaccharide or polysaccharide soluble fibers) and the volume of gas formed was measured. Fresh faecal material was pre-conditioned by dilution with 3 parts (w/v) of anaerobic simulator medium, stirring for 1 h under anaerobic conditions and filtering through 0.3-mm metal mesh after which it was incubated anaerobically for 24 h at 37° C.
The simulator medium used was composed as described by G. T. Macfarlane et al. (Microb. Ecol. 35(2):180-7 (1998)) containing the following constituents (g/L) in distilled water: starch (BDH Ltd.), 5.0; peptone, 0.05; tryptone, 5.0; yeast extract, 5.0; NaCl, 4.5; KCl, 4.5; mucin (porcine gastric type III), 4.0; casein (BDH Ltd.), 3.0; pectin (citrus), 2.0; xylan (oatspelt), 2.0; arabinogalactan (larch wood), 2.0; NaHCO3, 1.5; MgSO4, 1.25; guar gum, 1.0; inulin, 1.0; cysteine, 0.8; KH2PO4, 0.5; K2HPO4, 0.5; bile salts No. 3, 0.4; CaCl2×6 H2O, 0.15; FeSO4×7 H2O, 0.005; hemin, 0.05; and Tween 80, 1.0; cysteine hydrochloride, 6.3; Na2S×9 H2O, and 0.1% resazurin as an indication of sustained anaerobic conditions. The simulation medium was filtered through 0.3 mm metal mesh and divided into sealed serum bottles.
Test prebiotics were added from 10% (w/w) stock solutions to a final concentration of 1%. The incubation was performed at 37° C. while maintaining anaerobic conditions. Gas production due to microbial activity was measured manually after 24 h incubation using a scaled, airtight glass syringe, thereby also releasing the overpressure from the simulation unit.
Solutions of chromatographically-purified soluble oligosaccharide/polysaccharide fibers were dried to a constant weight by lyophilization. The individual soluble oligosaccharide/polysaccharide soluble fiber samples were subsequently evaluated as carbon source for in vitro gas production using the method described in the General Methods. PROMITOR® 85 (soluble corn fiber, Tate & Lyle), NUTRIOSE® FM06 (soluble corn fiber or dextrin, Roquette), FIBERSOL-2® 600F (digestion-resistant maltodextrin, Archer Daniels Midland Company & Matsutani Chemical), ORAFTI® GR (inulin from Beneo, Mannheim, Germany), LITESSE® Ultra™ (polydextrose, Danisco), GOS (galactooligosaccharide, Clasado Inc., Reading, UK), ORAFTI® P95 (oligofructose (fructo-oligosaccharide, FOS, Beneo), LACTITOL MC (4-O-β-D-Galactopyranosyl-D-glucitol monohydrate, Danisco) and glucose were included as control carbon sources. Table 61 lists the In vitro gas production by intestinal microbiota at 3 h and 24 h. Table 62 lists the in vitro gas production by intestinal microbiota from controls and the sequences identified from the GTF0459 homolog sequence search. Table 63 lists the in vitro gas production by intestinal microbiota from controls and truncations of homolog sequences identified from the GTF0459 homolog sequence search.

[1] = GTF activity of strains (PAHBAH assay); type: biochemical; details: enzyme expressed in B. subtilis host
Summary of the method: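 Glucosyltransferase (GTF) activity of the bacterial strains was measured with the PAHBAH assay. The enzymes tested were truncated GTF variants produced in a Bacillus subtilis expression host. Measurements were split across three separate experiments, and each activity value is reported together with the experiment it came from because results varied slightly between experiments.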

O.OC[C@@H](O)[C@@H](O[C@@H]1O[C@H](CO)[C@H](O)[C@H](O)[C@H]1O)[C@H](O)[C@@H](O)CO [LACTITOL MC, 4-O-β-D-Galactopyranosyl-D-glucitol monohydrate]
Acetic (human faecal microbiota): 318 mM
Branched Chain Fatty Acids (BCFA) (human faecal microbiota): 7.5 mM
Butyric (human faecal microbiota): 94 mM
Lactic (human faecal microbiota): 52 mM
Propionic (human faecal microbiota): 42 mM
Short Chain Fatty Acids (SCFA) (human faecal microbiota): 506 mM

O.OC[C@@H](O)[C@@H](O[C@@H]1O[C@H](CO)[C@H](O)[C@H](O)[C@H]1O)[C@H](O)[C@@H](O)CO [LACTITOL ® MC]
mL gas formation in 3 h (intestinal microbiota; Table 61): 2.0 mL
mL gas formation in 3 h (intestinal microbiota; Table 62): 2.0 mL
mL gas formation in 3 h (intestinal microbiota; Table 63): 3.0 mL
mL gas formation in 24 h (intestinal microbiota; 24 h, Table 61): 4.8 mL
mL gas formation in 24.5 h (intestinal microbiota; Table 62): 1.5 mL
mL gas formation in 24.5 h (intestinal microbiota; Table 63): 2.0 mL

B1: GTF0974T4: T4 C-terminal truncation of GTF0974 glucosyltransferase, SEQ ID NO: 128, strain SG1316 (protein)
chain: INGKQYYVNSDGSVRKNFVFEQDGKSYYFDAETGALATKSQDEFSTEPIKATVDFSSGNQLYKNDDKSLDQLDTFITADAWYRPKSILKDGKTWTASTEADKRPLLMVWWPDKSTQVNYLNYMQNQGLGAGSFSTNSSQESLDQAAKAVQTKIEERIAREGNTNWLRTSIDQFIKTQPGWNSSTENSSYDHLQGGQLLFNNSKGDTGNRTSHANSDYRLLNRTPTNQTGTRKYFKDNSIGGLEFLLANDIDNSNPAVQAEQLNWLHFMMNIGSIMANDPTANFDGLRVDALDNVDADLLQIASDYFKAAYGVDKSEANAIKHLSYLEAWSANDPYYNKDTKGAQLPIDNALRNALTNLLMRDKNTRMQLGDMTAFINSSLNPRGANDKNGERMANYIFTRAHDTEAQTIIQRIIRDRINPNLFGYNFTRDEIKKAFEIYNEDIDKAHKTYASYNLPSVYALMLTNKDSVTRVYYGDLYREDGHYMAKKTPYFDAIDTLLRARIKYVAGGQDMEVKKVGNDGLLTSVRYGKGANNRTDLGTSETRTQGMGVIMTNNYDFRLGSNETVTMNMGRAHRNQLYRPLLLTTKDGIATYLNDSDVPKKLLKRTDWNGNLTFNANDVFGVENVQVSGYLGVWVPYGAKANQDARTQPSNRANSDGQVYKSSAALDSQVMYEAFSNFQAFADDQPELYMNRVLAKNTDLLKAWGITSVGLPPQYVSSKDGTFLDSTIDNGYAFDDRYDMALSQNNKYGSLEDLLNVLRALHKDGIQAIADWVPDQIYNLPGKEVVNATRVNGYGNHQVGYQIIDQAYVANTRTDGTDYQGKYGGAFLDELKAKYPSIFNRVQISNGKQLPTNEKITKWSAKYFNGTNILGRGINYVLRDDKTNQYFNTSANSQLLPTPLRDTGAITSTQVFQRRGQDVYFLRDNQAVKNEFVQDGNGNWYYFGGDGKMTKGAQNINNKDYYFFDNGIQLRNALRRASNGYTYYYGLDGAMVKNAFVDFDDKHK
modifications: T4 C-terminal truncation of GTF0974
GTF activity of strains: Acitivity ([1]; Experiment Number 2): 47.2 U/mL
GTF activity of strains: Acitivity ([1]; Experiment Number 3): 33.9 U/mL

B2: GTF4991T6: T6 C-terminal truncation of GTF4991, SEQ ID NO: 152, strain SG1312 (protein)
chain: INGKQYYVNSDGSVRKNFVFEQDGKSYYFDAETGALATKSQDEFSTEPIKATVDFSSGNQLYKNDDKSLDQLDTFITADAWYRPKSILKDGKTWTASTEADKRPLLMVWWPDKSTQVNYLNYMQNQGLGAGSFSTNSSQESLDQAAKAVQTKIEERIAREGNTNWLRTSIDQFIKTQPGWNSSTENSSYDHLQGGQLLFNNSKGDTGNRTSHANSDYRLLNRTPTNQTGTRKYFKDNSIGGLEFLLANDIDNSNPAVQAEQLNWLHFMMNIGSIMANDPTANFDGLRVDALDNVDADLLQIASDYFKAAYGVDKSEANAIKHLSYLEAWSANDPYYNKDTKGAQLPIDNALRNALTNLLMRDKNTRMQLGDMTAFINSSLNPRGANDKNGERMANYIFTRAHDTEAQTIIQRIIRDRINPNLFGYNFTRDEIKKAFEIYNEDIDKAHKTYASYNLPSVYALMLTNKDSVTRVYYGDLYREDGHYMAKKTPYFDAIDTLLRARIKYVAGGQDMEVKKVGNDGLLTSVRYGKGANNRTDLGTSETRTQGMGVIMTNNYDFRLGSNETVTMNMGRAHRNQLYRPLLLTTKDGIATYLNDSDVPKNLLKRTDWNGNLTFNANDVFGVENVQVSGYLGVWVPYGAKANQDARTQPSNRANSDGQVYKSSAALDSQVMYEAFSNFQAFADDQPELYMNRVLAKNTDLLKAWGITSVGLPPQYVSSKDGTFLDSIIDNGYAFDDRYDMALSQNNKYGSLEDLLNVLRALHKDGIQAIADWVPDQIYNLPGKEVVNATRVNGYGYHQQGYQIVDQAYVANTRTDGTDYQGKYGGAFLDELKAKYPSIFNRVQISNGKQLPTNEKITKWSAKYFNGTNILGRGINFVLRDDKTNQYFNTSANSQLLPTPLRDTGAITSTQVFQRRGQDVYFLRDNQTVKNEFVQDGNGNWYYFGGDGKMTKGAQNINSKDYYFFDNGVQLRNALRRASNGYTYYYGLDGAMVKNAFVDFDDKHKQVRAFTTQG
modifications: T6 C-terminal truncation of GTF4491
GTF activity of strains: Acitivity ([1]; Experiment Number 1): 1.7 U/mL
